By solubility (thermodynamic) is commonly meant solubility found after equilibrating the solid with the medium.

Results on 86 compounds are retold here after ChEMBL document CHEMBL3301361, “Experimental in vitro DMPK and physicochemical data on a set of publicly disclosed compounds”.

Each structure is given as a SMILES string. Converted amounts (≈) assume the structure as drawn.

A short description of the data set: physchem. Conditions: pH 7.4 buffer.
With `N=C(N)c1ccc2cc(C(=O)Nc3ccc(CN)cc3)cc(Nc3ncccn3)c2c1`, the thermodynamic solubility was found to be 151 µM (≈ 62.3 µg/mL).
For the compound `CCn1cnc(-c2ccccc2)c1-c1nc2c(N)ncnc2s1`, the solubility (thermodynamic) came out at 170 µM (≈ 54.7 µg/mL).
On to `CSc1nc(N)n2nc(-c3ccco3)nc2n1`, for which the thermodynamic solubility was determined as 151 µM (≈ 37.6 µg/mL).
`O=C(NNC(=O)c1ccccc1)c1ccccc1` gave a thermodynamic solubility of 182 µM (≈ 43.7 µg/mL).
`O=C(c1ccc(F)cc1)C1CCN(C(=O)c2ccccc2)CC1` registered a thermodynamic solubility of 200 µM (≈ 62.1 µg/mL).
`N#Cc1ccccc1C(=O)N1CCC(C(=O)c2ccc(F)cc2)CC1` showed a solubility (thermodynamic) of 135 µM (≈ 45.4 µg/mL).
`Nc1nccc(/C=C/c2ccccc2)n1` returned a thermodynamic solubility of 190 µM (≈ 37.6 µg/mL).
With `Nc1ccc2c(c1)cc(C(=O)O)n2Cc1ccc(Cl)c(Cl)c1` the figure was 347 µM (≈ 116 µg/mL); with `Nc1nnc(-c2ccccc2F)s1`, 316 µM (≈ 61.7 µg/mL); with `COc1ccc(NC(=O)c2cc(C)no2)cc1`, 158 µM (≈ 36.8 µg/mL).
For `Cc1ccccc1C(=O)Nc1ccccc1`, the thermodynamic solubility is 186 µM (≈ 39.3 µg/mL).
With `O=C(O)c1cc2ccc(F)cc2n1Cc1ccc(Cl)c(Cl)c1`, the solubility (thermodynamic) was determined as 182 µM (≈ 61.5 µg/mL).
For `O=C(NNc1nc2ccccc2o1)c1ccccc1`, the solubility (thermodynamic) worked out at 129 µM (≈ 32.6 µg/mL).
With `CNC(=O)[C@@H](NC(=O)[C@H](CC(C)C)[C@H](OCc1cc2ccccc2n(C)c1=O)C(=O)NO)C(C)(C)C`, the thermodynamic solubility was determined as 269 µM (≈ 135 µg/mL).
With `Cc1cnc(NC(=O)c2ccccn2)s1` the figure was 200 µM (≈ 43.7 µg/mL); with `O=C(NC1CCN(C(=O)c2cccs2)CC1)c1ccccc1`, 166 µM (≈ 52.2 µg/mL).
The compound `Cc1ccccc1C(=O)NC1CCN(Cc2ccccc2)CC1` gave a thermodynamic solubility of 246 µM (≈ 75.7 µg/mL).
With `CC(C)Cn1c2ccccc2c2cc(C(=O)O)ccc21` the figure was 219 µM (≈ 58.5 µg/mL); with `Cc1ccc(-c2cn3cccnc3n2)cc1`, 251 µM (≈ 52.6 µg/mL).
In turn, `O=C(Nc1ccccc1)N1CCN(c2ccccn2)CC1` showed a thermodynamic solubility of 170 µM (≈ 47.9 µg/mL).
`O=C(Nc1ccccc1C(F)(F)F)N1CCN(c2ccccn2)CC1` showed a solubility (thermodynamic) of 190 µM (≈ 66.7 µg/mL).
In turn, `CCC(C)(C)NC(=O)Cc1ccc(C)cc1` displayed a solubility (thermodynamic) of 240 µM (≈ 52.6 µg/mL).
Regarding `COc1ccc(C(=O)Nc2nccs2)cc1OC`, the thermodynamic solubility stood at 132 µM (≈ 34.8 µg/mL).
`Oc1ncnc2c1cnn2Cc1ccccc1` showed a solubility (thermodynamic) of 158 µM (≈ 35.9 µg/mL).
`O=S(=O)(NCc1ccccc1)c1cccc2nonc12` returned a solubility (thermodynamic) of 141 µM (≈ 40.9 µg/mL).
In turn, `O=C(NCc1ccccc1)c1ccc(=O)oc1` came in with a solubility (thermodynamic) of 135 µM (≈ 30.9 µg/mL).
With `COCC(C)(C)Oc1cc(O[C@@H](C)Cc2ccccc2)cc(C(=O)Nc2ccc(C(=O)O)cn2)c1` the figure was 190 µM (≈ 91.2 µg/mL); with `O=C(Nc1cccnc1)c1ccc(OCCCN2CCCC2)cc1OCc1ccccc1`, 209 µM (≈ 90.1 µg/mL).
With `Nc1c2c(O)nc(O)cc2nn1-c1ccccc1` the figure was 178 µM (≈ 43.1 µg/mL); with `Oc1ncnc2c1nnn2Cc1ccccc1`, 209 µM (≈ 47.5 µg/mL); with `COc1cccc(NC(=O)Cn2cc(Oc3ncnc4cc(OC)c(OCCN5CCCCC5)cc34)cn2)c1`, 141 µM (≈ 75.3 µg/mL).
In turn, `COc1ccc(CNC(=O)c2ccc(Oc3ccc(C#C[C@]4(O)CN5CCC4CC5)cc3)cc2)nc1` returned a thermodynamic solubility of 347 µM (≈ 168 µg/mL).
`CC[C@@H](C)NC(=O)c1ccc(Oc2ccc(C#C[C@]3(O)CN4CCC3CC4)cc2)cc1`: the thermodynamic solubility is 112 µM (≈ 47 µg/mL).
Turning to `CCN(C(=O)Cc1ccc(S(C)(=O)=O)cc1)C1CCN(CCC(c2ccccc2)N2CCN(c3cccc(F)c3)CC2)CC1` (stereo unspecified), the thermodynamic solubility stood at 144 µM (≈ 89.7 µg/mL).
Regarding `CNC(=O)c1ccc(CC(=O)N(C)C2CCN(Cc3ccc(C(F)(F)F)cc3)CC2)cc1`, the solubility (thermodynamic) is 107 µM (≈ 48 µg/mL).
As for `CN(C(=O)Cc1ccc(-n2cnnn2)cc1)C1CCN(Cc2ccc(C(F)(F)F)nc2)CC1`, the solubility (thermodynamic) is 182 µM (≈ 83.6 µg/mL).
The compound `CO[C@H]1CN(Cc2ccc(C(F)(F)F)cc2)CC[C@H]1N(C)C(=O)Cc1ccc(-n2cnnn2)cc1` registered a thermodynamic solubility of 263 µM (≈ 128 µg/mL).
With `C[C@H]1COCCN1c1cc(CS(C)(=O)=O)nc(-c2ccc3[nH]ccc3c2)n1` the figure was 190 µM (≈ 73.6 µg/mL); with `O=C(N[C@@H](Cc1ccc(OCCc2cccc(NC3CCCC3)n2)cc1)C(=O)O)c1c(Cl)cccc1Cl`, 295 µM (≈ 160 µg/mL); with `O=C(O)Cc1cccc(-c2ccc(NC(=O)c3nnc(Nc4ccccc4F)o3)cc2)c1`, 257 µM (≈ 111 µg/mL).
Regarding `O=C(Nc1ccc(Cl)c(Cl)c1)N1CCN(C[C@@H]2CCCN(CCCc3ccccc3)C2)CC1`, the thermodynamic solubility is 144 µM (≈ 70.7 µg/mL).
The same measure for `CNc1nc2ccc(NC(C)=O)cc2s1`: 347 µM (≈ 76.7 µg/mL); for `CC(C)(C)c1csc(N2CCN(C(=O)[C@@H]3CCCC[C@H]3C(=O)NC3(C#N)CC3)CC2)n1`: 282 µM (≈ 125 µg/mL); for `CC(C)Oc1cc(O[C@H](C)c2ccccc2)cc(C(=O)Nc2ccc(C(=O)O)cn2)c1`: 112 µM (≈ 47.2 µg/mL).
Regarding `Cc1csc(NC(=O)c2ccccc2)n1`, the solubility (thermodynamic) came out at 331 µM (≈ 72.3 µg/mL).
In turn, `CCCN(CCO)CCCOc1ccc2c(Nc3cc(CC(=O)Nc4cccc(F)c4)[nH]n3)ncnc2c1` registered a solubility (thermodynamic) of 112 µM (≈ 58.5 µg/mL).
Compound `O=C(Cc1ccccc1)Nc1ccccc1O` displayed a solubility (thermodynamic) of 246 µM (≈ 55.8 µg/mL).
As to `COc1ccccc1C[C@@H](C(=O)O)N1CCC(CN2CCC(Oc3ccc(Cl)c(Cl)c3)CC2)CC1`, the thermodynamic solubility was 263 µM (≈ 137 µg/mL).
The same measure for `Cc1cc(OC2CCN(CC3CCN([C@@](C)(Cc4ccc(F)cc4)C(=O)O)CC3)CC2)ccc1Cl`: 204 µM (≈ 103 µg/mL); for `N#CC1(NC(=O)[C@@H]2CCCC[C@H]2C(=O)N2CCc3[nH]c4c(C(F)(F)F)cccc4c3C2)CC1`: 144 µM (≈ 66.3 µg/mL); for `N#CC1(NC(=O)[C@@H]2CCCC[C@H]2C(=O)N2CCc3[nH]c4c(OC(F)(F)F)cccc4c3C2)CC1`: 123 µM (≈ 58.4 µg/mL).
As for `CCOc1cccc2c3c([nH]c12)CCN(C(=O)[C@@H]1CCCC[C@H]1C(=O)NC1(C#N)CC1)C3`, the solubility (thermodynamic) worked out at 302 µM (≈ 131 µg/mL).
Compound `N#CC1(NC(=O)[C@@H]2CCCC[C@H]2C(=O)N2CCc3[nH]c4ccc(Cl)cc4c3C2)CC1` registered a thermodynamic solubility of 129 µM (≈ 54.7 µg/mL).
In turn, `CS(=O)(=O)c1ccc(N2CCN(C(=O)[C@@H]3CCCC[C@H]3C(=O)NCC#N)CC2)cc1` had a solubility (thermodynamic) of 275 µM (≈ 119 µg/mL).
Turning to `COc1cc(N2CCN(C(=O)[C@@H]3CCCC[C@H]3C(=O)NC3(C#N)CC3)[C@H](C)C2)ccc1C1CC1`, the thermodynamic solubility is 204 µM (≈ 94.9 µg/mL).
For `CC(C)c1c(C(=O)NC2C3CC4CC(C3)CC2C4)cnn1-c1ccc(C(=O)O)cc1` (stereo unspecified), the thermodynamic solubility amounted to 224 µM (≈ 91.2 µg/mL).
`CC(=O)N1CCN(CCOc2ccc(C3(O)CCN(c4ccc5nnc(C(F)(F)F)n5n4)CC3)cc2)CC1` had a solubility (thermodynamic) of 170 µM (≈ 90.6 µg/mL).
The same measure for `Cc1cc(C)cc(-c2[nH]c3sc(C(C)(C)C(=O)N4C5CCC4CC5)cc3c2CCN2CCC(CNC(=O)N3CCOCC3)CC2)c1`: 112 µM (≈ 72.5 µg/mL); for `Nc1ccccc1NC(=O)c1ccc(N2CCOCC2)cc1`: 182 µM (≈ 54.1 µg/mL); for `COc1cc2c(Nc3ccc(Br)cc3F)ncnc2cc1OC/C=C/CN1CCCC1`: 240 µM (≈ 117 µg/mL).
Consider `C[C@@H](Oc1cccc2ncnc(Nc3ccc4c(cnn4Cc4ccccn4)c3)c12)C(=O)N1CCCC1`, for which the solubility (thermodynamic) was found to be 110 µM (≈ 54.1 µg/mL).
On to `COc1cc2c(Nc3cc(CC(=O)Nc4cc(F)cc(F)c4)[nH]n3)ncnc2cc1OCCCN1CCC(CO)CC1`, for which the solubility (thermodynamic) is 214 µM (≈ 124 µg/mL).
With `c1ccc(Nc2ncnc3ccccc23)cc1`, the solubility (thermodynamic) was determined as 132 µM (≈ 29.2 µg/mL).
`COc1cc2cc(O)nc(C)c2cc1OC` showed a solubility (thermodynamic) of 209 µM (≈ 45.8 µg/mL).
With `COc1cc2ncnc(Nc3cc(NC(=O)c4ccnc(N5CCOCC5)c4)ccc3C)c2cc1OCCN(C(C)C)C(C)C` the figure was 240 µM (≈ 147 µg/mL); with `COc1ccc(Cn2c(CCc3c[nH]c4ccccc34)nnc2[C@@H](Cc2c[nH]c3ccccc23)NC(=O)C(C)(C)N)cc1`, 182 µM (≈ 105 µg/mL); with `COc1cc2c(Nc3ncc(CNS(=O)(=O)c4cccc(F)c4)s3)ncnc2cc1OCCCN1CCC(CO)CC1`, 302 µM (≈ 186 µg/mL).
For the compound `COCCN(Cc1cc2c(Nc3cccc(Cl)c3F)ncnc2cc1OC)[C@@H](C)C(N)=O`, the thermodynamic solubility turned out to be 166 µM (≈ 76.7 µg/mL).
Turning to `CNC(=O)[C@H]1CCCN1Cc1cc2c(Nc3cccc(Cl)c3F)ncnc2cc1OC`, the solubility (thermodynamic) was found to be 282 µM (≈ 125 µg/mL).
`COc1cc2c(Nc3cc(CC(=O)Nc4cccc(F)c4)[nH]n3)ncnc2cc1OCCCNCCO` returned a thermodynamic solubility of 219 µM (≈ 111 µg/mL).
Regarding `CC(=O)NC1CCN(C(=O)CN2CCN(CCc3c(-c4cc(C)cc(C)c4)[nH]c4sc(C(C)(C)C(=O)N5C6CCC5CC6)cc34)CC2)C1` (stereo unspecified), the solubility (thermodynamic) was 107 µM (≈ 72.1 µg/mL).
In the case of `CC(=O)N1CCN(CC(O)CN2CCN(CCc3c(-c4cc(C)cc(C)c4)[nH]c4sc(C(C)(C)C(=O)N5C6CCC5CC6)cc34)CC2)CC1` (stereo unspecified), the solubility (thermodynamic) was determined as 214 µM (≈ 147 µg/mL).
`Nc1ccccc1NC(=O)c1ccc(C2CCN(CCC(=O)Nc3ccccc3F)CC2)cc1` had a thermodynamic solubility of 112 µM (≈ 51.7 µg/mL).
Take `C[C@H](Oc1cccc2ncnc(Nc3ccc4c(cnn4Cc4ccccn4)c3)c12)C(=O)N1CCOCC1`: the thermodynamic solubility was 166 µM (≈ 84.6 µg/mL).
`O=C(O)c1cc2cc(F)ccc2n1Cc1ccc(Cl)c(Cl)c1` showed a solubility (thermodynamic) of 209 µM (≈ 70.6 µg/mL).
The same measure for `COc1cc2c(Nc3cc(CC(=O)Nc4cccc(F)c4)[nH]n3)ncnc2cc1OCCCN1CCC[C@@H]1CO`: 162 µM (≈ 89.1 µg/mL).
Regarding `COCCNS(=O)(=O)c1ccc(Nc2nccc(-c3c(C)nc(C)n3C)n2)cc1`, the thermodynamic solubility worked out at 219 µM (≈ 91.1 µg/mL).
For `CC(=O)NC1CN(c2ccc(Nc3ncc(F)c(-c4cnc(C)n4C(C)C)n3)cc2)C1`, the solubility (thermodynamic) is 120 µM (≈ 50.9 µg/mL).
The same measure for `Cc1ncc(-c2nc(Nc3ccc(N4CCN(C(=O)CO)CC4)cc3)ncc2F)n1C(C)C`: 158 µM (≈ 71.9 µg/mL); for `CCN(CC)C(=O)C(C)(C)c1ccc2[nH]c(-c3cc(C)cc(C)c3)c(CCNCCCCc3ccncc3)c2c1`: 141 µM (≈ 76.1 µg/mL).
With `N=C1S/C(=C/c2ccco2)C(=O)N1c1nccs1` the figure was 182 µM (≈ 50.5 µg/mL); with `Nc1nccc(/C=C/c2c(Cl)nc3sccn23)n1`, 324 µM (≈ 89.9 µg/mL); with `Cc1ncc(-c2nc(Nc3ccc(N4CCOCC4)cc3)ncc2F)n1C(C)C`, 118 µM (≈ 46.6 µg/mL).
Turning to `CN(C)CCCNS(=O)(=O)c1ccc(Nc2nccc(-c3cnc4cccnn34)n2)cc1`, the thermodynamic solubility came to 158 µM (≈ 71.7 µg/mL).
The same measure for `O=C(Nc1nccs1)[C@H](CC1CCOCC1)c1ccc(S(=O)(=O)C2CC2)cc1`: 295 µM (≈ 124 µg/mL); for `CN(C)CCCN(C)S(=O)(=O)c1ccc(Nc2nccc(-c3cnc4ccccn34)n2)cc1`: 309 µM (≈ 144 µg/mL).
